Reference: PMC8115619, “Generation of a chemical genetic model for JAK3” (Scientific Reports, 2021)

Columns and labels:
[1] = test system: IL-2 induced STAT5 phosphorylation in spleenocytes; experiment: IL-2 induced STAT5 phosphorylation in spleenocytes; format: cell-based, mouse; conditions: wild type mice, inhibitor 1 h, 10 ng/ml IL-2
Procedure: (A) Single cell suspensions were prepared from the spleens of wild type mice. […] Cells were then stimulated with 10 ng/ml IL-4 for 30 min and the levels of phosphorylated STAT6 determined by immunoblotting. (B) As (A) except cells were stimulated with 10 ng/ml IL-2 and the levels of phosphorylated STAT5 determined. (C) CD8 T cells were expanded from the lymph nodes of wild type and JAK3 Cys905Ser knockin mice. Cells were rested in the absence of IL-2 for 60 min then incubated with the indicated concentrations of PF-06651600 for a further 30 min before stimulation with 10 ng/ml of IL-2 for 30 min. The levels of phosphorylated STAT5 and total ERK1/2 were then determined.
(§1) Cells were lysed directly into SDS sample buffer and aliquots run on 10% polyacrylamide gels using standard methods. Proteins were transferred onto nitrocellulose membranes, and specific proteins were detected by immunoblotting. […] Bands were detected using Clarity ECL reagents from BioRad and imaged on a Licor Odyssey Fc system. Quantification was carried out using Licor Image Studio software. After correction for the ERK1/2 levels to account for loading differences, percentage inhibition was calculated relative to the IL-4 stimulated condition. IC50 values were calculated using the same methods as for the in vitro IC50 values.

[2] = test system: IFNβ induced STAT1 phosphorylation in BMDMs; experiment: IFNβ induced STAT1 phosphorylation in macrophages; format: cell-based, mouse; conditions: wild type BMDMs, 10 μM inhibitor 2 h, 10 ng/ml IFNβ
Procedure: (A) BMDMs were isolated from wild type mice. Cells were incubated with the indicated inhibitors in μM for 2 h before stimulation with 10 ng/ml IL-4 for 30 min. The levels of phosphorylated STAT6 were then determined by immunoblotting. (B) As (A) except cells were stimulated 10 ng/ml GM-CSF and the levels of phosphorylated STAT5 determined. (C) As (A) except cells were stimulated 10 ng/ml IL-10 and the levels of phosphorylated STAT3 determined. (D) As (A) except cells were stimulated 10 ng/ml IFNβ and the levels of phosphorylated STAT1 determined. For A–D, levels of ERK1/2 were determined as a loading control.
Bone marrow derived macrophages (BMDMs) were cultured as described. Briefly, bone marrow was flushed in PBS from the femurs and tibias of mice. […]
as §1

[3] = target: S6K1 (Homo sapiens, UniProt P23443); experiment: Selectivity screen S6K1; format: biochemical; conditions: 1 µM inhibitor, mean
Procedure: (§2) For the in vitro kinase assay, JAK3 (5–20 mU diluted in 50 mM Tris pH 7.5, 0.1 mM EGTA, 0.05% β-mercaptoethanol, 1 mg/ml BSA) was assayed against PDKtide ([…]) in a final volume of 25.5 µl containing 50 mM Tris pH 7.5, 0.1 mM EGTA, 0.05% β-mercaptoethanol, 100 µM substrate peptide, 10 mM magnesium acetate and 0.02 mM [33P-γ-ATP] (50–1000 cpm/pmole) and incubated for 30 min at room temperature. Assays were started by the addition of the ATP and stopped by addition of 5 µl of 0.5 M (3%) orthophosphoric acid and then harvested onto P81 Unifilter plates with a wash buffer of 50 mM orthophosphoric acid. To determine the Km for ATP, assays were run using 1, 5, 10, 20, 50, 100, 200, 400, 500 μM ATP and Km derived by non-linear regression fitting to the Michaelis–Menten equation v = Vmax[S]/(Km + [S]). IC50 values for inhibitors via non-linear regression using a parameter model: Y = Bottom + (Top–Bottom)/(1 + (IC50/X)^HillSlope). Non-linear regression was carried out in Prism (version 8). In vitro selectivity screen was carried out as described previously.

[4] = target: IRAK4 (Homo sapiens, UniProt Q9NWZ3); experiment: Selectivity screen IRAK4; format: biochemical; conditions: 1 µM inhibitor, mean
Procedure: as §2

[5] = target: TESK1 (Homo sapiens, UniProt Q15569); experiment: Selectivity screen TESK1; format: biochemical; conditions: 1 µM inhibitor, mean
Procedure: as §2

[6] = target: MST4 (Homo sapiens, UniProt Q9P289); experiment: Selectivity screen MST4; format: biochemical; conditions: 1 µM inhibitor, mean
Procedure: as §2

[7] = target: EPH-A4 (Homo sapiens, UniProt P54764); experiment: Selectivity screen EPH-A4; format: biochemical; conditions: 1 µM inhibitor, mean
Procedure: as §2

[8] = target: SIK2 (Homo sapiens, UniProt Q9H0K1); experiment: Selectivity screen SIK2; format: biochemical; conditions: 1 µM inhibitor, mean
Procedure: as §2

[9] = target: JNK1 (Homo sapiens, UniProt P45983); experiment: Selectivity screen JNK1; format: biochemical; conditions: 1 µM inhibitor, mean
Procedure: as §2

[10] = target: EF2K (Homo sapiens, UniProt O00418); experiment: Selectivity screen EF2K; format: biochemical; conditions: 1 µM inhibitor, mean
Procedure: as §2

[11] = target: p38b MAPK (Homo sapiens, UniProt Q15759); experiment: Selectivity screen p38b MAPK; format: biochemical; conditions: 1 µM inhibitor, mean
Procedure: as §2

[12] = target: MAPKAP-K2 (Homo sapiens, UniProt P49137); experiment: Selectivity screen MAPKAP-K2; format: biochemical; conditions: 1 µM inhibitor, mean
Procedure: as §2

[13] = target: ULK2 (Homo sapiens, UniProt Q8IYT8); experiment: Selectivity screen ULK2; format: biochemical; conditions: 1 µM inhibitor, mean
Procedure: as §2

[14] = target: ERK1 (Homo sapiens, UniProt P27361); experiment: Selectivity screen ERK1; format: biochemical; conditions: 1 µM inhibitor, mean
Procedure: as §2

[15] = target: BRSK1 (Homo sapiens, UniProt Q8TDC3); experiment: Selectivity screen BRSK1; format: biochemical; conditions: 1 µM inhibitor, mean
[16] = target: MNK1 (Homo sapiens, UniProt Q9BUB5); experiment: Selectivity screen MNK1; format: biochemical; conditions: 1 µM inhibitor, mean
Procedure: as §2

[17] = target: NEK6 (Homo sapiens, UniProt Q9HC98); experiment: Selectivity screen NEK6; format: biochemical; conditions: 1 µM inhibitor, mean
Procedure: as §2

[18] = target: LKB1 (Homo sapiens, UniProt Q15831); experiment: Selectivity screen LKB1; format: biochemical; conditions: 1 µM inhibitor, mean
Procedure: as §2

[19] = target: CLK2 (Homo sapiens, UniProt P49760); experiment: Selectivity screen CLK2; format: biochemical; conditions: 1 µM inhibitor, mean
Procedure: as §2

SIK2, sequence (Q9H0K1 whole entry): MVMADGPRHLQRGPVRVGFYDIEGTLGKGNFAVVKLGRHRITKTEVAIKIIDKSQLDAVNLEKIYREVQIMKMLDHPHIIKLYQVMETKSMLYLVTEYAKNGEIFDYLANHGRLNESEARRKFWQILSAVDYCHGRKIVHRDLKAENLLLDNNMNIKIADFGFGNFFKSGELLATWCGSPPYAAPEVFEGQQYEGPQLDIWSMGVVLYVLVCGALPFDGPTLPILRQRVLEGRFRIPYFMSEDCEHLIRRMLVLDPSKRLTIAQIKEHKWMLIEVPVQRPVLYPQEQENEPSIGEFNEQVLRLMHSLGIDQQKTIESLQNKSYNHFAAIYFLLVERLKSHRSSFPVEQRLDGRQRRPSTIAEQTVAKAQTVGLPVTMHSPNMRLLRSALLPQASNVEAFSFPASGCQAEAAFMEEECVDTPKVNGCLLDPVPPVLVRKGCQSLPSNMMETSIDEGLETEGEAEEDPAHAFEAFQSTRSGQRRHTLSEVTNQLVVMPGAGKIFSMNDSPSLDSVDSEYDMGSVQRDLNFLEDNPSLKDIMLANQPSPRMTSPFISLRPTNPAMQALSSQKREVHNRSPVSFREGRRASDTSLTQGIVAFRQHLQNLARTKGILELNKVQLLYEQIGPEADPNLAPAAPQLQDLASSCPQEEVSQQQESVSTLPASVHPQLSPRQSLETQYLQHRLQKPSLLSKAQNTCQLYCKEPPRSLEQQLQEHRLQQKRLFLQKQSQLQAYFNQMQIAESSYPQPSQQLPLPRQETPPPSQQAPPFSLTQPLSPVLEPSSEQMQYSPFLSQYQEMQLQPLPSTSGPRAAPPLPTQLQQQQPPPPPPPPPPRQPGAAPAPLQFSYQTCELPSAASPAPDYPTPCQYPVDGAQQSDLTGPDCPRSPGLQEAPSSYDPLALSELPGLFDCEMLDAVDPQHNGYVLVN
NEK6, sequence (Q9HC98 whole entry): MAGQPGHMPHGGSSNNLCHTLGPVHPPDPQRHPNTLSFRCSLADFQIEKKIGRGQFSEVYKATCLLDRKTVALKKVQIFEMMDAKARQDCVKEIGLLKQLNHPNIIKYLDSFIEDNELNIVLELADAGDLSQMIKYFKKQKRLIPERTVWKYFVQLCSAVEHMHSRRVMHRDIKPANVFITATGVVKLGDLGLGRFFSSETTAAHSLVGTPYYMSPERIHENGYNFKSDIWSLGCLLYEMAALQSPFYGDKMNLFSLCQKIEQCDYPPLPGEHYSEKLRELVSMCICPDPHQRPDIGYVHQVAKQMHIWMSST
LKB1, sequence (Q15831 whole entry): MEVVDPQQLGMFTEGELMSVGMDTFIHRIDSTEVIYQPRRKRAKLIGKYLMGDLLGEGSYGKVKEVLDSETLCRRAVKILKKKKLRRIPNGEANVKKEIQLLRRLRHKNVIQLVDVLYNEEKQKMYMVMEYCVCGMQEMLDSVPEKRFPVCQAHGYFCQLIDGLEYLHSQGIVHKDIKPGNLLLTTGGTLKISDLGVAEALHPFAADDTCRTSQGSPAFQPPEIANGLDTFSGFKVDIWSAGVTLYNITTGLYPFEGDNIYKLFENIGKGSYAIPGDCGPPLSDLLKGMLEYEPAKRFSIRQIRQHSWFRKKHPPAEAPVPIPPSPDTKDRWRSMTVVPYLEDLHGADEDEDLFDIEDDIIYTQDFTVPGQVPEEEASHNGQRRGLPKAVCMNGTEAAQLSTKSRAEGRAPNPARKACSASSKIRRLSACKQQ
LKB1, sequence (Q7RTN6 whole entry partner): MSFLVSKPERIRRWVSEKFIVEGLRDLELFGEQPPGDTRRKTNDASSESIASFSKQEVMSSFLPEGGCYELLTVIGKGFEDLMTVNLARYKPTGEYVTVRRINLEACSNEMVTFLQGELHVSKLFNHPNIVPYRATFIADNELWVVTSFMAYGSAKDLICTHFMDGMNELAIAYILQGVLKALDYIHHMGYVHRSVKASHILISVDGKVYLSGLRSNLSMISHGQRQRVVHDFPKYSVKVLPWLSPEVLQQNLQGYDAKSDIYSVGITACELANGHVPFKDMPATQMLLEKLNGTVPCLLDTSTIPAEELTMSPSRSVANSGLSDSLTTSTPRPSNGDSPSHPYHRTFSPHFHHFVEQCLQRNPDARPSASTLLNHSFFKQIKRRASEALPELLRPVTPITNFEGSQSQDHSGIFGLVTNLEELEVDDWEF
LKB1, sequence (Q9Y376 whole entry partner): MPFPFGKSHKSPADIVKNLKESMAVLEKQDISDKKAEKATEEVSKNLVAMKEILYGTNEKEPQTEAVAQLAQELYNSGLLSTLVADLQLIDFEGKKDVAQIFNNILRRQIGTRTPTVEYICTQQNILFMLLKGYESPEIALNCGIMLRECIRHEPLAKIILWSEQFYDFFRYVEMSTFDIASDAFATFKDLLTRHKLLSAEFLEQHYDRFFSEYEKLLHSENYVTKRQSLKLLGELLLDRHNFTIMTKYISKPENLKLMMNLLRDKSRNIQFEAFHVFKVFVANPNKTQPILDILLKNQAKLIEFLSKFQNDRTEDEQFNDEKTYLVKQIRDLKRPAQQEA
p38b MAPK, sequence (Q15759 whole entry): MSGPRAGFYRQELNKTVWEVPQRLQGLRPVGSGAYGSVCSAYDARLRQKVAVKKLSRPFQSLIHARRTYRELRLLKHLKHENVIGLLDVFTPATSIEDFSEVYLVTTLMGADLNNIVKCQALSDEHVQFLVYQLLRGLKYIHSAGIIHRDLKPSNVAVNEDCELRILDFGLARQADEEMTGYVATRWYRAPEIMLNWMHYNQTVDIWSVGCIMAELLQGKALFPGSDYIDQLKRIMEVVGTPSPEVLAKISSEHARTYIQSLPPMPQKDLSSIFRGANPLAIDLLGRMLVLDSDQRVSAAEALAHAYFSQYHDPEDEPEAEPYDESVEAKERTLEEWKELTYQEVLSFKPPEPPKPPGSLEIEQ
JNK1, sequence (P45983 whole entry): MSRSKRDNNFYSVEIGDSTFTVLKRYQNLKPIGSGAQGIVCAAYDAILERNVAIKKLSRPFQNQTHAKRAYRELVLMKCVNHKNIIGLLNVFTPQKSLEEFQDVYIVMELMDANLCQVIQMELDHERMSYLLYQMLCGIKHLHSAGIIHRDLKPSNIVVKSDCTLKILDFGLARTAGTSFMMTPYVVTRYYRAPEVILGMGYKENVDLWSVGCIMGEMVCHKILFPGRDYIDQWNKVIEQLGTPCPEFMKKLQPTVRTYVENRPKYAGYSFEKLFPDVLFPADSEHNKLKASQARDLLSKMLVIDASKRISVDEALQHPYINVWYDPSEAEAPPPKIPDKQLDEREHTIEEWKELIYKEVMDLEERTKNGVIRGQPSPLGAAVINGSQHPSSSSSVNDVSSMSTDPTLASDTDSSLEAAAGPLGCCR
ERK1, sequence (P27361 whole entry): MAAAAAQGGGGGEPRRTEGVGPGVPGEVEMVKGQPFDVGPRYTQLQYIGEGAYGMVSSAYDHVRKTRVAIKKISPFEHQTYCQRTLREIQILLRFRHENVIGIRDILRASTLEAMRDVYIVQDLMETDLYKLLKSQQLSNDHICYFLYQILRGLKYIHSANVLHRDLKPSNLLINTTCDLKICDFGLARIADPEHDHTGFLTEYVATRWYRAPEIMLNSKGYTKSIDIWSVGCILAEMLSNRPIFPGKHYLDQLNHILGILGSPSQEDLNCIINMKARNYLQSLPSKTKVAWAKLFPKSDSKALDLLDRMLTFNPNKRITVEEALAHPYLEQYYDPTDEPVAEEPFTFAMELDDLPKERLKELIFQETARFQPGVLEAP
EF2K, sequence (O00418 whole entry): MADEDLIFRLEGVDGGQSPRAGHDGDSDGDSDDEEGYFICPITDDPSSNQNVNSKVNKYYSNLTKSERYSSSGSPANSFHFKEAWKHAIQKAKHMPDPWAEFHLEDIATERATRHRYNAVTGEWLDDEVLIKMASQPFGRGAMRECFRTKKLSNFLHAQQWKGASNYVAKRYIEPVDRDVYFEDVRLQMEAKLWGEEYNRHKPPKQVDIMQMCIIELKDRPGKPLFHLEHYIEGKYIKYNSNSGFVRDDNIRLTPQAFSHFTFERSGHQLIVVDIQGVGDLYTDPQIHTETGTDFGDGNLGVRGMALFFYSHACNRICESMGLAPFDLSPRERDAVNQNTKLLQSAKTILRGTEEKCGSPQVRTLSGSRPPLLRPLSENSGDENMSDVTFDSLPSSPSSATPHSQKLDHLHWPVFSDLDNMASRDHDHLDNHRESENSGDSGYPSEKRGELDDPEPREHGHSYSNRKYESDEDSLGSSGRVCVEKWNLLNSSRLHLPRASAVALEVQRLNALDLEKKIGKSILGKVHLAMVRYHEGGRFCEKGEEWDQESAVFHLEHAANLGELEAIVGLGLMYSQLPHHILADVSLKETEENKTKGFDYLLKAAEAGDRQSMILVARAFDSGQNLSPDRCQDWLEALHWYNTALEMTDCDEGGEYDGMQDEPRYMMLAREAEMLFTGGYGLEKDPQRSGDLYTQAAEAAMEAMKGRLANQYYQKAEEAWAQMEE
MAPKAP-K2, sequence (P49137 whole entry): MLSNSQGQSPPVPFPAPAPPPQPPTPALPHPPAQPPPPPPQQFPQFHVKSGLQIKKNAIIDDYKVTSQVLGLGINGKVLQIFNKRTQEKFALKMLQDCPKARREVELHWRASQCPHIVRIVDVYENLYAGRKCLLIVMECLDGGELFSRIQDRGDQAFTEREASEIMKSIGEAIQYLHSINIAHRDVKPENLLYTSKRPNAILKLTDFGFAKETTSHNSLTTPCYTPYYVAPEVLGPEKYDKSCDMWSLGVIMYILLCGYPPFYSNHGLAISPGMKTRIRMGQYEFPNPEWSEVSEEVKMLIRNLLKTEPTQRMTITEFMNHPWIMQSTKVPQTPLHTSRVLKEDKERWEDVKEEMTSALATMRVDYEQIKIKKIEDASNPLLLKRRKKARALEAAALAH

SMILES	block of IL-2 induced STAT5 phosphorylation in spleenocytes [1]	inhibition of IFNβ induced STAT1 phosphorylation [2]	activity remaining in the presence of the inhibitor: S6K1 [3]	activity remaining in the presence of the inhibitor: IRAK4 [4]	activity remaining in the presence of the inhibitor: TESK1 [5]	activity remaining in the presence of the inhibitor: MST4 [6]	activity remaining in the presence of the inhibitor: EPH-A4 [7]	activity remaining in the presence of the inhibitor: SIK2 [8]	activity remaining in the presence of the inhibitor: JNK1 [9]	activity remaining in the presence of the inhibitor: EF2K [10]	activity remaining in the presence of the inhibitor: p38b MAPK [11]	activity remaining in the presence of the inhibitor: MAPKAP-K2 [12]	activity remaining in the presence of the inhibitor: ULK2 [13]	activity remaining in the presence of the inhibitor: ERK1 [14]	activity remaining in the presence of the inhibitor: BRSK1 [15]	activity remaining in the presence of the inhibitor: MNK1 [16]	activity remaining in the presence of the inhibitor: NEK6 [17]	activity remaining in the presence of the inhibitor: LKB1 [18]	activity remaining in the presence of the inhibitor: CLK2 [19]
C=CC(=O)N1C[C@H](Nc2ncnc3[nH]ccc23)CC[C@@H]1C [PF-06651600, 1-((2S,5R)-5-((7H-Pyrrolo[2,3-d]pyrimidin-4-yl)amino)-2-methylpiperidin-1-yl)prop-2-en-1-one, reference compound]	able to block	did not block	–	–	–	–	–	–	–	–	–	–	–	–	–	–	–	–	–
C=CC(=O)Nc1cccc(CNc2nc(Nc3ccc(N4CCN(C)CC4)cc3OC)ncc2Cl)c1 [TL6-144]	–	–	90	85	99	107	104	58	83	95	93	103	63	94	103	105	97	91	62
C=CC(=O)Nc1cccc(CNc2nc(Nc3ccc(N4CCOCC4)cc3)ncc2Cl)c1 [TL8-52]	able to block	Some inhibition	87	77	91	96	99	31	104	105	96	97	92	94	86	112	103	132	29
